Experimental data as given in US7867707B2, “Method for detecting analytes in a sample” (Evotec AG, priority 2004, dated 2011).

Tested on: c-fos mRNA
Assay: Expression of c-fos mRNA in HepG2 cells, bead-based confocal detection with detection/capture oligonucleotides
Format: cell-based
Conditions: 100 nM PMA, 24 μl of lysate, using the calibration of example 1a
Method: Fully automated dual-channel confocal imaging was performed with two independent cooled CCD detectors. Excitation wavelengths were 532 nm and 633 nm, a dichroic beam splitter with 630 nm was used and emission filters were 565/50 nm and 690/40 nm. Laser power was […] for both wavelengths, measured at the entrance of the objective. Exposure times were usually in the range of 500-1000 ms.
The analysis of the images was performed with image analysis software as follows. Segmentation of the beads from the background was performed on a pixel-basis in the reference image. […] A mask of these rings corresponding to detected beads was generated from the reference image. This mask was applied to the signal image (see FIG. 6, right picture). Areas within the outer boundary of the ring were evaluated for fluorescence intensity stemming from the DO-analyte-CO complex bound to the bead. […] Such local background intensity was then subtracted from the signal intensity.
The final result was the mean fluorescence intensity/bead pixel of the signal image. In general, the intensity was averaged over all correctly detected beads of the image. As already mentioned, images of sedimented beads were taken. The sedimented beads were usually comprised in wells of micro- or nanotiter plates and in some cases, several images were taken of each well. […]

Structure (SMILES): CCCCCCCCCCCCCC(=O)O[C@@H]1[C@@H](C)[C@@]2(O)[C@@H](C=C(CO)C[C@]3(O)C(=O)C(C)=C[C@@H]23)[C@@H]2C(C)(C)[C@]12OC(C)=O [PMA, Phorbol 12-myristate 13-acetate]
- c-fos mRNA copy number: 3.03*10^6 copies mRNA/well
